Legend:
HCC1143 [1] = assay: normalised viability (% of control), CellTiter-Blue; higher = more viable cells (about 100 = DMSO control); settings: incubation time: 72 h
Procedure, shortened: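 Each entry is normalised viability at a single listed concentration within a series. It comes from breast cancer cell lines incubated 72 h with compound in 384-well plates, then measured with CellTiter-Blue fluorescence at 560/590 nm. Every plate was normalised between vehicle (100) and a positive kill control (0).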

MDA-MB-436 [2] = settings: 72 h
Procedure, shortened: (§1)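 Plates of 384 wells holding compound in 5 µl medium received breast cancer cell lines in 20 µl suspension and were incubated 72 h. CellTiter-Blue (2.5 µl, 2 h, 37 °C) was used for viability, read at 560/590 nm, and every plate was normalised to vehicle and a positive kill control and assessed by Z'-factor. The EC50 derives from a percent-inhibition dose-response curve fit censored at the highest concentration, leaving out rows whose drug sensitivity score was zero.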

HCC1143 [3] = settings: 72 h
Procedure, shortened: as §1

HCC1599 [4] = settings: 72 h
Procedure, shortened: as §1

BT-549 [5] = settings: 72 h
Procedure, shortened: as §1

CAL-120 [6] = settings: 72 h
Procedure, shortened: as §1

MFM-223 [7] = settings: 72 h
Procedure, shortened: as §1

HCC1937 = assay: normalised viability (% of control), CellTiter-Blue; higher = more viable cells (100 = DMSO, 0 = benzethonium chloride kill control); settings: incubation time: 72 h
Procedure: (§2)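 DSRT, CellTiter-Blue viability, 72 h incubation. Signal is normalised to DMSO and benzethonium chloride controls. Value is the normalised response at dose 1.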

MDA-MB-436 [8] = assay: as above; settings: incubation time: 72 h
Procedure: as §2

HDQ-P1 [9] = assay: as above; settings: incubation time: 72 h
Procedure: as §2

BT-474 = assay: as above; settings: incubation time: 72 h
Procedure: as §2

MDA-MB-453 [10] = assay: as above; settings: incubation time: 72 h
Procedure: as §2

CAL-148 [11] = assay: as above; settings: incubation time: 72 h
Procedure: as §2

CAL-51 [12] = assay: as above; settings: incubation time: 72 h
Procedure: as §2

Hs578T = assay: as above; settings: incubation time: 72 h
Procedure: as §2

MDA-MB-231 = assay: as above; settings: incubation time: 72 h
Procedure: as §2

DU-4475 [13] = assay: as above; settings: incubation time: 72 h
Procedure: as §2

HCC1143 [14] = assay: as above; settings: incubation time: 72 h
Procedure: as §2

MDA-MB-468 = assay: as above; settings: incubation time: 72 h
Procedure: as §2

CAL-85-1 [15] = assay: as above; settings: incubation time: 72 h
Procedure: as §2

SK-BR-3 = assay: as above; settings: incubation time: 72 h
Procedure: as §2

HCC1599 [16] = assay: as above; settings: incubation time: 72 h
Procedure: as §2

BT-549 [17] = assay: as above; settings: incubation time: 72 h
Procedure: as §2

CAL-120 [18] = assay: as above; settings: incubation time: 72 h
Procedure: as §2

MFM-223 [19] = assay: as above; settings: incubation time: 72 h
Procedure: as §2

CAL-85-1 [20] = settings: 72 h
Procedure: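 Drug sensitivity and resistance testing (DSRT) of breast cancer cell lines in 384-well plates, 5 concentrations in 10-fold dilutions over a compound-specific 10,000-fold range. After 72 h, cytotoxicity was read by CellTox Green fluorescence and viability by CellTiter-Glo luminescence (multiplexed), normalised to DMSO and benzethonium chloride controls. EC50 is the inflection point of the fitted dose-response curve (bottom asymptote free, so it can be relative for partial curves) and is censored at the highest tested concentration. Rows with DSS 0 (no meaningful response) were excluded.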

MDA-MB-453 [21] = settings: 72 h
Procedure, shortened: as §1

CAL-51 [22] = settings: 72 h
Procedure, shortened: as §1

DU-4475 [23] = settings: 72 h
Procedure, shortened: as §1

CAL-85-1 [24] = settings: 72 h; remark: listed apart in the source
Procedure, shortened: as §1

HDQ-P1 [25] = settings: 72 h
Procedure, shortened: as §1

CAL-148 [26] = settings: 72 h
Procedure, shortened: as §1

C[C@]12O[C@H](C[C@]1(O)CO)n1c3ccccc3c3c4c(c5c6ccccc6n2c5c31)CNC4=O [Lestaurtinib]
normalised viability (HCC1143 [1]; 10 nM): 113%
EC50, CellTiter-Blue viability (MDA-MB-436 [2]): 202 nM
EC50, CellTiter-Blue viability (HCC1143 [3]): 151 nM
EC50, CellTiter-Blue viability (HCC1599 [4]): 201 nM
EC50, CellTiter-Blue viability (BT-549 [5]): 672 nM
EC50, CellTiter-Blue viability (CAL-120 [6]): 65.5 nM
EC50, CellTiter-Blue viability (MFM-223 [7]): 133 nM
normalised viability (HCC1937; 0.1 nM): 96.4%
normalised viability (MDA-MB-436 [8]; 0.1 nM): 126%
normalised viability (HDQ-P1 [9]; 0.1 nM): 113%
normalised viability (BT-474; 0.1 nM): 100%
normalised viability (MDA-MB-453 [10]; 0.1 nM): 113%
normalised viability (CAL-148 [11]; 0.1 nM): 118%
normalised viability (CAL-51 [12]; 0.1 nM): 115%
normalised viability (Hs578T; 0.1 nM): 118%
normalised viability (MDA-MB-231; 0.1 nM): 115%
normalised viability (DU-4475 [13]; 0.1 nM): 110%
normalised viability (HCC1143 [14]; 0.1 nM): 107%
normalised viability (MDA-MB-468; 0.1 nM): 126%
normalised viability (CAL-85-1 [15]; 0.1 nM): 100%
normalised viability (SK-BR-3; 0.1 nM): 97.7%
normalised viability (HCC1599 [16]; 0.1 nM): 109%
normalised viability (BT-549 [17]; 0.1 nM): 120%
normalised viability (CAL-120 [18]; 0.1 nM): 101%
normalised viability (MFM-223 [19]; 0.1 nM): 107%
EC50, CellTox Green (CAL-85-1 [20]): 356 nM
EC50, CellTiter-Blue viability (MDA-MB-453 [21]): 174 nM
EC50, CellTiter-Blue viability (CAL-51 [22]): 330 nM
EC50, CellTiter-Blue viability (DU-4475 [23]): 186 nM
EC50, CellTiter-Blue viability (CAL-85-1 [24]): 284 nM

Nc1ccccc1NC(=O)c1ccc(CNc2nccc(-c3cccnc3)n2)cc1 [Mocetinostat]
normalised viability (HCC1143 [1]; 100 nM): 81.5%
EC50, CellTiter-Blue viability (MDA-MB-436 [2]): 2020 nM
EC50, CellTiter-Blue viability (HCC1143 [3]): 1770 nM
EC50, CellTiter-Blue viability (HCC1599 [4]): 873 nM
EC50, CellTiter-Blue viability (BT-549 [5]): 2620 nM
EC50, CellTiter-Blue viability (CAL-120 [6]): 75.7 nM
EC50, CellTiter-Blue viability (MFM-223 [7]): 4200 nM
normalised viability (HCC1937; 1 nM): 90.8%
normalised viability (MDA-MB-436 [8]; 1 nM): 99.2%
normalised viability (HDQ-P1 [9]; 1 nM): 84.2%
normalised viability (BT-474; 1 nM): 107%
normalised viability (MDA-MB-453 [10]; 1 nM): 92.5%
normalised viability (CAL-148 [11]; 1 nM): 107%
normalised viability (CAL-51 [12]; 1 nM): 93.6%
normalised viability (Hs578T; 1 nM): 113%
normalised viability (MDA-MB-231; 1 nM): 110%
normalised viability (DU-4475 [13]; 1 nM): 91.3%
normalised viability (HCC1143 [14]; 1 nM): 91.1%
normalised viability (MDA-MB-468; 1 nM): 92%
normalised viability (CAL-85-1 [15]; 1 nM): 91.8%
normalised viability (SK-BR-3; 1 nM): 93%
normalised viability (HCC1599 [16]; 1 nM): 92.2%
normalised viability (BT-549 [17]; 1 nM): 117%
normalised viability (CAL-120 [18]; 1 nM): 81.7%
normalised viability (MFM-223 [19]; 1 nM): 91.2%
EC50, CellTox Green (CAL-85-1 [20]): 2380 nM
EC50, CellTiter-Blue viability (HDQ-P1 [25]): 9490 nM
EC50, CellTiter-Blue viability (MDA-MB-453 [21]): 588 nM
EC50, CellTiter-Blue viability (CAL-148 [26]): 1790 nM
EC50, CellTiter-Blue viability (CAL-51 [22]): 3050 nM
EC50, CellTiter-Blue viability (DU-4475 [23]): 757 nM
EC50, CellTiter-Blue viability (CAL-85-1 [24]): 1530 nM

COc1ccc(-c2cc3c(C)nc(N)nc3n([C@H]3CC[C@H](OCCO)CC3)c2=O)cn1
normalised viability (HCC1143 [1]; 100 nM): 92.8%
EC50, CellTiter-Blue viability (MDA-MB-436 [2]): 234 nM
EC50, CellTiter-Blue viability (HCC1143 [3]): 418 nM
EC50, CellTiter-Blue viability (HCC1599 [4]): 121 nM
EC50, CellTiter-Blue viability (BT-549 [5]): 196 nM
EC50, CellTiter-Blue viability (CAL-120 [6]): 193 nM
EC50, CellTiter-Blue viability (MFM-223 [7]): 180 nM
normalised viability (HCC1937; 1 nM): 90.5%
normalised viability (MDA-MB-436 [8]; 1 nM): 103%
normalised viability (HDQ-P1 [9]; 1 nM): 75.8%
normalised viability (BT-474; 1 nM): 100%
normalised viability (MDA-MB-453 [10]; 1 nM): 87.1%
normalised viability (CAL-148 [11]; 1 nM): 104%
normalised viability (CAL-51 [12]; 1 nM): 95.4%
normalised viability (Hs578T; 1 nM): 100%
normalised viability (MDA-MB-231; 1 nM): 118%
normalised viability (DU-4475 [13]; 1 nM): 106%
normalised viability (HCC1143 [14]; 1 nM): 106%
normalised viability (MDA-MB-468; 1 nM): 104%
normalised viability (CAL-85-1 [15]; 1 nM): 105%
normalised viability (SK-BR-3; 1 nM): 86.5%
normalised viability (HCC1599 [16]; 1 nM): 130%
normalised viability (BT-549 [17]; 1 nM): 96.5%
normalised viability (CAL-120 [18]; 1 nM): 120%
normalised viability (MFM-223 [19]; 1 nM): 102%
EC50, CellTox Green (CAL-85-1 [20]): 4090 nM
EC50, CellTiter-Blue viability (HDQ-P1 [25]): 66.9 nM
EC50, CellTiter-Blue viability (MDA-MB-453 [21]): 72.8 nM
EC50, CellTiter-Blue viability (CAL-148 [26]): 246 nM
EC50, CellTiter-Blue viability (CAL-51 [22]): 140 nM
EC50, CellTiter-Blue viability (DU-4475 [23]): 610 nM
EC50, CellTiter-Blue viability (CAL-85-1 [24]): 301 nM

Source: the supplement of paper PMC4862054
